Experiment: mn = molality of the nth substance listed, in mol/kg
Conditions: for surface tension liquid-gas: Maximal bubble pressure; for mass density: 100 kPa, Liquid, Vibrating tube method

O [water] + CC(=O)[O-].CCCCC[n+]1ccn(C)c1
m2 = 0
Conditions | mass density [kg/m3] | surface tension liquid-gas [mN/m]
288.15 K | – | 73.5
293.15 K | – | 72.8
298.15 K | – | 72
303.15 K | – | 71.2
308.15 K | 994.06 | 70.4
313.15 K | – | 69.6
318.15 K | – | 68.7

CC(=O)[O-].CCCn1cc[n+](C)c1 [1-propyl-3-methylimidazolium acetate] + O
Conditions | mass density [kg/m3] | surface tension liquid-gas [mN/m]
288.15 K, m1 = 0.0113 | 1000.22 | 73.4
288.15 K, m1 = 0.0172 | 1000.35 | 73.2
288.15 K, m1 = 0.0279 | 1000.55 | 72.8
288.15 K, m1 = 0.0446 | 1000.78 | 72.5
288.15 K, m1 = 0.1119 | 1001.76 | 71
288.15 K, m1 = 0.1673 | 1002.56 | 69.8
288.15 K, m1 = 0.2244 | 1003.49 | 68.6
288.15 K, m1 = 0.2808 | 1004.43 | 67.4
288.15 K, m1 = 0.3352 | 1005.37 | 66.2
288.15 K, m1 = 0.3925 | 1006.31 | 65.1
288.15 K, m1 = 0.448 | 1007.25 | 64
288.15 K, m1 = 0.5037 | 1007.98 | 63
293.15 K, m1 = 0.0113 | 999.22 | 72.6
293.15 K, m1 = 0.0172 | 999.35 | 72.5
293.15 K, m1 = 0.0279 | 999.53 | 72.1
293.15 K, m1 = 0.0446 | 999.76 | 71.8
293.15 K, m1 = 0.1119 | 1000.68 | 70.5
293.15 K, m1 = 0.1673 | 1001.46 | 69
293.15 K, m1 = 0.2244 | 1002.37 | 67.8
293.15 K, m1 = 0.2808 | 1003.28 | 66.7
293.15 K, m1 = 0.3352 | 1004.16 | 65.5
293.15 K, m1 = 0.3925 | 1005.08 | 64.4
293.15 K, m1 = 0.448 | 1005.89 | 63.3
293.15 K, m1 = 0.5037 | 1006.64 | 62.4
298.15 K, m1 = 0.0113 | 997.99 | 71.8
298.15 K, m1 = 0.0172 | 998.1 | 71.6
298.15 K, m1 = 0.0279 | 998.25 | 71.3
298.15 K, m1 = 0.0446 | 998.46 | 70.9
298.15 K, m1 = 0.1119 | 999.35 | 69.6
298.15 K, m1 = 0.1673 | 1000.14 | 68.4
298.15 K, m1 = 0.2244 | 1001.01 | 67
298.15 K, m1 = 0.2808 | 1001.86 | 66
298.15 K, m1 = 0.3352 | 1002.67 | 64.8
298.15 K, m1 = 0.3925 | 1003.62 | 63.7
298.15 K, m1 = 0.448 | 1004.43 | 62.6
298.15 K, m1 = 0.5037 | 1005.19 | 61.6
303.15 K, m1 = 0.0113 | 996.54 | 71
303.15 K, m1 = 0.0172 | 996.62 | 70.8
303.15 K, m1 = 0.0279 | 996.78 | 70.5
303.15 K, m1 = 0.0446 | 996.99 | 70.1
303.15 K, m1 = 0.1119 | 997.84 | 68.8
303.15 K, m1 = 0.1673 | 998.61 | 67.6
303.15 K, m1 = 0.2244 | 999.46 | 66.3
303.15 K, m1 = 0.2808 | 1000.3 | 65.1
303.15 K, m1 = 0.3352 | 1001.12 | 64
303.15 K, m1 = 0.3925 | 1001.97 | 62.9
303.15 K, m1 = 0.448 | 1002.83 | 61.8
303.15 K, m1 = 0.5037 | 1003.47 | 60.9
308.15 K, m1 = 0.0113 | 994.86 | 70.2
308.15 K, m1 = 0.0172 | 994.92 | 70
308.15 K, m1 = 0.0279 | 995.09 | 69.7
308.15 K, m1 = 0.0446 | 995.28 | 69.3
308.15 K, m1 = 0.1119 | 996.14 | 68.1
308.15 K, m1 = 0.1673 | 996.89 | 66.8
308.15 K, m1 = 0.2244 | 997.74 | 65.4
308.15 K, m1 = 0.2808 | 998.56 | 64.4
308.15 K, m1 = 0.3352 | 999.31 | 63.3
308.15 K, m1 = 0.3925 | 1000.19 | 62.2
308.15 K, m1 = 0.448 | 1000.95 | 61.2
308.15 K, m1 = 0.5037 | 1001.66 | 60.2
313.15 K, m1 = 0.0113 | 992.97 | 69.3
313.15 K, m1 = 0.0172 | 993.03 | 69.1
313.15 K, m1 = 0.0279 | 993.19 | 68.8
313.15 K, m1 = 0.0446 | 993.36 | 68.5
313.15 K, m1 = 0.1119 | 994.21 | 67.1
313.15 K, m1 = 0.1673 | 994.99 | 65.9
313.15 K, m1 = 0.2244 | 995.82 | 64.7
313.15 K, m1 = 0.2808 | 996.66 | 63.6
313.15 K, m1 = 0.3352 | 997.38 | 62.4
313.15 K, m1 = 0.3925 | 998.21 | 61.4
313.15 K, m1 = 0.448 | 998.97 | 60.4
313.15 K, m1 = 0.5037 | 999.65 | 59.5
318.15 K, m1 = 0.0113 | 990.93 | 68.5
318.15 K, m1 = 0.0172 | 991.01 | 68.4
318.15 K, m1 = 0.0279 | 991.15 | 68
318.15 K, m1 = 0.0446 | 991.33 | 67.7
318.15 K, m1 = 0.1119 | 992.2 | 66.4
318.15 K, m1 = 0.1673 | 992.92 | 65.2
318.15 K, m1 = 0.2244 | 993.77 | 64.1
318.15 K, m1 = 0.2808 | 994.56 | 63
318.15 K, m1 = 0.3352 | 995.34 | 61.9
318.15 K, m1 = 0.3925 | 996.12 | 60.9
318.15 K, m1 = 0.448 | 996.87 | 59.8
318.15 K, m1 = 0.5037 | 997.59 | 58.9

Source: the NIST ThermoML archive (doi:10.1016/j.jct.2018.07.012)
